{"source": "ChEMBL document CHEMBL4196200", "about": "(J Med Chem, 2018)", "key": {"[1]": {"biological_target": "T1, Oxytocin receptor (Homo sapiens) (UniProt P30559)", "T1 sequence (whole entry)": "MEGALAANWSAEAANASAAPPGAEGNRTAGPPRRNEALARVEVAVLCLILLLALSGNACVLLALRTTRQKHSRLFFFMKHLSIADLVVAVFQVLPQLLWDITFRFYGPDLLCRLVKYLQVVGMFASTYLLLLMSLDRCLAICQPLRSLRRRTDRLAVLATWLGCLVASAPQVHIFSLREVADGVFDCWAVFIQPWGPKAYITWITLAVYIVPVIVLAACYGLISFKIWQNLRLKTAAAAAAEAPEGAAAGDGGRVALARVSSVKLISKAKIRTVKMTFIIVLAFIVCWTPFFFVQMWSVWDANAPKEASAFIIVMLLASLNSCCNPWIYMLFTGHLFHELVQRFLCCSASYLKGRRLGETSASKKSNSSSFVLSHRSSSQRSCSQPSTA", "test": "Agonist activity at human OTR expressed in HEK cells assessed as increase in intracellular calcium flux incubated for 45 mins by Indo1-AM dye based fluorescence assay relative to OT", "assay_type": "functional, cell-based"}, "Mus musculus [2]": {"system": "Mus musculus", "test": "Effect on social interaction in Oprm1+/+ mouse model of autism spectrum disorders assessed as number of following episodes at 10 mg/kg, ip pre-treated before open-field test for 10 mins", "assay_type": "ADME, organism-based", "settings": "in vivo"}, "Vasopressin V2 receptor [3]": {"biological_target": "T2, Vasopressin V2 receptor (Homo sapiens, UniProt P30518)", "T2 sequence (P30518 whole entry)": "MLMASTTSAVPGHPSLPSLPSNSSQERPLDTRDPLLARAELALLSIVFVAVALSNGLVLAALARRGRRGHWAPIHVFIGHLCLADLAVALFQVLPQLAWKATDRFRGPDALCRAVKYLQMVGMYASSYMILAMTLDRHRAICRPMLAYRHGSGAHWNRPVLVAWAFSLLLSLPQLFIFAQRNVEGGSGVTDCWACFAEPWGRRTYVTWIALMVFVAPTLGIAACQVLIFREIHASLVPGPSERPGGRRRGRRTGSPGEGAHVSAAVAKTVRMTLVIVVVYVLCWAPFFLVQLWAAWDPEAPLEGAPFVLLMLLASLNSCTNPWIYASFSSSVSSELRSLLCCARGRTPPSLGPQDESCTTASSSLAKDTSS", "test": "Agonist activity at human V2 receptor expressed in HEK293FT cells incubated for 30 mins by beta-arrestin recruitment assay", "assay_type": "functional, cell-based"}, "Mus musculus [4]": {"system": "Mus musculus", "test": "(§1) Effect on social interaction in Oprm1+/+ mouse model of autism spectrum disorders assessed as time spent in nose contacts at 10 mg/kg, ip pre-treated before open-field test for 10 mins", "assay_type": "ADME, organism-based", "settings": "in vivo"}, "Vasopressin V1a receptor [5]": {"biological_target": "T3, Vasopressin V1a receptor (Homo sapiens, UniProt P37288)", "T3 sequence (P37288 whole entry)": "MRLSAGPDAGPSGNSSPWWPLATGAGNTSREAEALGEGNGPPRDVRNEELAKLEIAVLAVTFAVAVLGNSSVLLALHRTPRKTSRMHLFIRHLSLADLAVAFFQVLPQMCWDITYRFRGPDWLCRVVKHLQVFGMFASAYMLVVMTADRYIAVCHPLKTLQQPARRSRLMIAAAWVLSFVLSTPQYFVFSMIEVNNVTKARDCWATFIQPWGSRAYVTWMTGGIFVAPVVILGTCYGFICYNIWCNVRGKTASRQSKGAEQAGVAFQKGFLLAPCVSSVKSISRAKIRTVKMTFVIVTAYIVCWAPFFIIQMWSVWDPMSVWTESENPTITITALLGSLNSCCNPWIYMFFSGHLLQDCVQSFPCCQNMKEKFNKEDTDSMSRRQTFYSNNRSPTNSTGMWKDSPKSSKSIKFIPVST", "test": "Displacement of DY647 from SNAP-tagged V1A receptor (unknown origin) expressed in HEK293 cells by TR-FRET assay", "assay_type": "cell-based"}, "[6]": {"biological_target": "T1, Oxytocin receptor (Homo sapiens)", "test": "Agonist activity at human OTR receptor expressed in HEK293FT cells assessed as stimulation of calcium release by Aequorin based assay relative to OT", "assay_type": "functional, cell-based"}, "Oxytocin receptor [7]": {"biological_target": "T4, Oxytocin receptor (Homo sapiens, UniProt P30559)", "T4 sequence (P30559 whole entry)": "T1 sequence (whole entry)", "test": "Agonist activity at human OTR receptor expressed in HEK293FT cells assessed as stimulation of calcium release by Aequorin based assay", "assay_type": "functional, cell-based"}, "Vasopressin V2 receptor [8]": {"biological_target": "T2, Vasopressin V2 receptor", "test": "Agonist activity at human V2 receptor expressed in HEK293FT cells assessed as stimulation of calcium release by Aequorin based assay", "assay_type": "functional, cell-based"}, "Mus musculus [9]": {"system": "Mus musculus", "test": "(§2) Effect on social interaction in Oprm1+/+ mouse model of autism spectrum disorders assessed as mean duration of nose contacts at 10 mg/kg, ip pre-treated before open-field test for 10 mins", "assay_type": "ADME, organism-based", "settings": "in vivo"}, "Mus musculus [10]": {"system": "Mus musculus", "test": "Improvement in social interaction in Oprm1-/- mouse model of autism spectrum disorders assessed as restoration of time spent in nose contacts at 20 mg/kg, ip pre-treated before open-field test for 10 mins", "assay_type": "functional, organism-based"}, "Mus musculus [11]": {"system": "Mus musculus", "test": "as §2", "assay_type": "ADME, organism-based", "settings": "in vivo", "remark": "listed apart in the source"}, "Vasopressin V1a receptor [12]": {"biological_target": "T3, Vasopressin V1a receptor", "description": "Agonist activity at human V1a receptor expressed in HEK293FT cells incubated for 30 mins by beta-arrestin recruitment assay"}, "Mus musculus [13]": {"system": "Mus musculus", "test": "(§3) Effect on social interaction in Oprm1+/+ mouse model of autism spectrum disorders assessed as grooming episodes occurring after social contact at 10 mg/kg, ip pre-treated before open-field test for 10 mins", "assay_type": "ADME, organism-based", "settings": "in vivo"}, "Vasopressin V1b receptor [14]": {"biological_target": "T5, Vasopressin V1b receptor (Homo sapiens, UniProt P47901)", "T5 sequence (P47901 whole entry)": "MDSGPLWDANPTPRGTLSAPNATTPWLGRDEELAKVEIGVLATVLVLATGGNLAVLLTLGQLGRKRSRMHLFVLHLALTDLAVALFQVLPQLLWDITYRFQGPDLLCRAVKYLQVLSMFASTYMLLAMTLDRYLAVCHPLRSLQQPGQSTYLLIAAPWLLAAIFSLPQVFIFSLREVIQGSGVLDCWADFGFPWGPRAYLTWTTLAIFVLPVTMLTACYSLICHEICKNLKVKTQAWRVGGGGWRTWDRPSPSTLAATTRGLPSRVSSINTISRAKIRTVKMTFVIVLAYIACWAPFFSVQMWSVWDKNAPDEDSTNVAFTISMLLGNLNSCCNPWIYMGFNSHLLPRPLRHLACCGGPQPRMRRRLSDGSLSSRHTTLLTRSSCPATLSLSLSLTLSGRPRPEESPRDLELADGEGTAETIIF", "description": "Agonist activity at human V1b receptor expressed in HEK293FT cells incubated for 30 mins by beta-arrestin recruitment assay"}, "Vasopressin V1b receptor [15]": {"biological_target": "T5, Vasopressin V1b receptor", "test": "Antagonist activity at human V1b receptor expressed in HEK293FT cells assessed as inhibition of AVP-induced response incubated for 30 mins by beta-arrestin recruitment assay", "assay_type": "functional, cell-based"}, "Mus musculus [16]": {"system": "Mus musculus", "test": "as §1", "assay_type": "ADME, organism-based", "settings": "in vivo", "remark": "listed apart in the source"}, "Vasopressin V1b receptor [17]": {"biological_target": "T5, Vasopressin V1b receptor", "remark": "listed apart in the source", "description": "Agonist activity at human V1b receptor expressed in HEK293FT cells assessed as stimulation of calcium release by Aequorin based assay"}, "Vasopressin V1a receptor [18]": {"biological_target": "T3, Vasopressin V1a receptor", "test": "Antagonist activity at human V1a receptor expressed in HEK293FT cells assessed as inhibition of AVP-induced calcium release by Aequorin based assay", "assay_type": "functional, cell-based"}, "Mus musculus [19]": {"system": "Mus musculus", "test": "Improvement in social interaction in Oprm1-/- mouse model of autism spectrum disorders assessed as suppression of grooming episodes occurring after social contact at 20 mg/kg, ip pre-treated before open-field test for 10 mins", "assay_type": "functional, organism-based"}, "Oxytocin receptor [20]": {"biological_target": "T4, Oxytocin receptor", "test": "Agonist activity at human OTR receptor expressed in HEK293FT cells incubated for 30 mins by beta-arrestin recruitment assay", "assay_type": "functional, cell-based"}, "[21]": {"biological_target": "T1, Oxytocin receptor (Homo sapiens)", "test": "Agonist activity at human OTR receptor expressed in HEK293FT cells incubated for 30 mins by beta-arrestin recruitment assay relative to OT", "assay_type": "functional, cell-based"}, "Mus musculus [22]": {"system": "Mus musculus", "test": "Improvement in social interaction in Oprm1-/- mouse model of autism spectrum disorders assessed as restoration of mean duration of nose contacts at 20 mg/kg, ip pre-treated before open-field test for 10 mins", "assay_type": "functional, organism-based"}, "Mus musculus [23]": {"system": "Mus musculus", "test": "as §3", "assay_type": "ADME, organism-based", "settings": "in vivo", "remark": "listed apart in the source"}, "Mus musculus [24]": {"system": "Mus musculus", "test": "Effect on social interaction in Oprm1+/+ mouse model of autism spectrum disorders assessed as number of nose contacts at 10 mg/kg, ip pre-treated before open-field test for 10 mins", "assay_type": "ADME, organism-based", "settings": "in vivo"}, "Vasopressin V1b receptor [25]": {"biological_target": "T5, Vasopressin V1b receptor", "test": "Antagonist activity at human V1b receptor expressed in HEK293FT cells assessed as inhibition of AVP-induced calcium release by Aequorin based assay", "assay_type": "functional, cell-based"}, "Vasopressin V1a receptor [26]": {"biological_target": "T3, Vasopressin V1a receptor", "remark": "listed apart in the source", "description": "Agonist activity at human V1a receptor expressed in HEK293FT cells assessed as stimulation of calcium release by Aequorin based assay"}, "Mus musculus [27]": {"system": "Mus musculus", "test": "Improvement in social interaction in Oprm1-/- mouse model of autism spectrum disorders assessed as suppression of grooming episodes occurring after social contact at 10 mg/kg, ip pre-treated before open-field test for 10 mins", "assay_type": "functional, organism-based"}, "[28]": {"biological_target": "T1, Oxytocin receptor (Homo sapiens)", "test": "Antagonist activity at human OTR expressed in HEK cells assessed as inhibition of OT-induced intracellular calcium flux at 1 uM incubated for 45 mins by Indo1-AM dye based fluorescence assay relative to OT", "assay_type": "functional, cell-based"}, "Mus musculus [29]": {"system": "Mus musculus", "test": "Improvement in social interaction in Oprm1-/- mouse model of autism spectrum disorders assessed as restoration of number of nose contacts at 20 mg/kg, ip pre-treated before open-field test for 10 mins", "assay_type": "functional, organism-based"}, "Vasopressin V2 receptor [30]": {"biological_target": "T2, Vasopressin V2 receptor", "test": "Agonist activity at human V2 receptor expressed in HEK293FT cells incubated for 30 mins by beta-arrestin recruitment assay relative to AVP", "assay_type": "functional, cell-based"}}, "note": "The source made the active and inactive calls. No cut-off for these calls is given here."}
{"smiles": "Cc1cc(C(=O)N2Cc3cnn(C)c3Nc3ccccc32)ccc1CNC(=O)N1CCC[C@H]1C(=S)N(C)C", "values": [{"measurement": "Emax", "setting": "[1]", "value": 52, "unit": "%"}, {"measurement": "Activity", "setting": "Mus musculus [2]", "value": "Toxic"}, {"measurement": "EC50", "setting": "Vasopressin V2 receptor [3]", "value": 660, "unit": "nM"}, {"measurement": "Activity", "setting": "Mus musculus [4]", "value": "Toxic"}, {"measurement": "Ki", "setting": "Vasopressin V1a receptor [5]", "value": 1250, "unit": "nM"}, {"measurement": "Emax", "setting": "[6]", "value": 96, "unit": "%"}, {"measurement": "EC50", "setting": "Oxytocin receptor [7]", "value": 25, "unit": "nM"}, {"measurement": "EC50", "setting": "Vasopressin V2 receptor [8]", "value": 41, "unit": "nM"}, {"measurement": "Activity", "setting": "Mus musculus [9]", "value": "Toxic"}, {"measurement": "Activity", "setting": "Mus musculus [10]", "value": "inactive"}, {"measurement": "Activity", "setting": "Mus musculus [11]", "value": "Non-Toxic"}, {"measurement": "IC50", "setting": "Vasopressin V1a receptor [12]", "value": "Not Active"}, {"measurement": "Activity", "setting": "Mus musculus [13]", "value": "Non-Toxic"}, {"measurement": "EC50", "setting": "Vasopressin V1b receptor [14]", "value": "Not Active"}, {"measurement": "IC50", "setting": "Vasopressin V1b receptor [15]", "value": "Not Active"}, {"measurement": "Activity", "setting": "Mus musculus [16]", "value": "Non-Toxic"}, {"measurement": "EC50", "setting": "Vasopressin V1b receptor [17]", "value": "Not Active"}, {"measurement": "IC50", "setting": "Vasopressin V1a receptor [18]", "value": 5900, "unit": "nM"}, {"measurement": "Activity", "setting": "Mus musculus [19]", "value": "inactive"}, {"measurement": "EC50", "setting": "Oxytocin receptor [20]", "value": 62, "unit": "nM"}, {"measurement": "Emax", "setting": "[21]", "value": 77, "unit": "%"}, {"measurement": "Activity", "setting": "Mus musculus [22]", "value": "inactive"}, {"measurement": "Activity", "setting": "Mus musculus [23]", "value": "Toxic"}, {"measurement": "Activity", "setting": "Mus musculus [24]", "value": "Non-Toxic"}, {"measurement": "IC50", "setting": "Vasopressin V1b receptor [25]", "value": "Not Active"}, {"measurement": "EC50", "setting": "Vasopressin V1a receptor [26]", "value": "Not Active"}, {"measurement": "Activity", "setting": "Mus musculus [27]", "value": "Active"}, {"measurement": "inhibition", "setting": "[28]", "value": "5 to 10", "unit": "%"}, {"measurement": "Activity", "setting": "Mus musculus [29]", "value": "inactive"}, {"measurement": "Emax", "setting": "Vasopressin V2 receptor [30]", "value": 97, "unit": "%"}]}
